# Laboratory results as given in patent US20240018132A1, “5-HYDROXY-1,4-NAPHTHALENEDIONE FOR USE IN THE TREATMENT OF CANCER” (GODAVARI BIOREFINERIES LIMITED, priority 2020, published 2024).
# Tests used:
# MDAMB231 [1] = assay: Soft agar colony-formation assay, breast cancer; assay type: cell-based; details: for anticancer activity in comparison with cisplatin, soft agar, breast cancer cell line: FIG. 51, MDAMB231; for IC50: Homo sapiens, MDA-MB-231, 168 h, Soft Agar Assay, 1 week, Alamar Blue
# Method: (§1) The Soft Agar Colony-formation Assay is an anchorage-independent growth assay in soft agar, which is one of the most stringent assays for detecting malignant transformation of cells. For this assay, malignant cells are cultured with appropriate controls in soft agar medium for 1-2 weeks. Following this incubation period, formed colonies can either be analyzed morphologically using cell stain and quantifying the number of colonies formed.
# (§2) Briefly, for Soft Agar Assay a mixture of 50 ul of 2× medium (taken appropriately as per cell line) and 50 ul of 1.2% Bacto Agar were plated on to each well of 96 well micro titer assay plate. 10 ul of cells (of specific plating efficiency pre standardized for respective cell line) were mixed with 20 ul of 2× medium and 30 ul of 0.8% of Bacto Agar and 1.6 ul of drug (of appropriate concentration) in a vial and transferred to the solidified pre layers of the assay plates. The cells were then allowed to grow and form colonies at 37° C. and 5% CO2 for 1 week. An intermittent feeding with 50 ul of appropriate 2× medium was performed after 3 days of experimental set up. 16 ul of Alamar Blue (1.5 mg/ml) was then added to all the wells to quantify the developed colonies. The plates were incubated for 24 hrs at 37° C. Absorbance was then measured at 630 nm. XY graph of log Percent viability was then plotted against log drug concentration.
# (§3) Following plating efficiencies were standardized for Soft Agar Assay: […]
# MDAMB231 [2] = assay: In vitro antiproliferative assay (MTT assay), breast cancer cell line; assay type: cell-based; details: Homo sapiens, MDA-MB-231, 48 h, MTT assay, breast cancer MDAMB231, 48 hrs drug incubation
# Method: (§4) MTT assay is a simple and sensitive assay where, metabolic reducing activity of the cells is measured. The increase of this activity in time is taken as a parameter of cell growth. If treatment with a drug impairs this increase, the action is a consequence of growth inhibition, cell killing or both. […] All cell lines were cultured in a 37° C. incubator with a 5% CO2 environment. Compounds were dissolved in DMSO with a concentration of 0.1M (stock solution). Cells were seeded into 96-well plates at suitable plating efficiency.
# (§5) Following plating efficiencies were standardized for MTT assay:
# (§6) In the MTT procedure, the cells were plated in 96 well plates as per predetermined plating efficiency (Table1). The plates were then incubated for 24 hrs in 5% CO2 atmosphere at 37° C. Appropriate concentrations of the drugs were then added to the plate and further incubation was carried out for 48 hrs (in 5% CO2 atmosphere at 37° C.). The assay plate was then centrifuged twice at 3000 rpm for 3 mins and supernatant was then discarded. 100 ul of MTT solution (0.5 mg/ml) was then added to each well of the plate and it was further incubated for 4 hrs (in 5% CO2 atmosphere at 37° C.) Following 4 hr incubation, the plate was then centrifuged twice, and supernatant was aspirated off very carefully. 200 ul of DMSO was then added to each well to solubilize. MTT crystals and mixed well by shaking the plate. XY graph of log percent viability was then plotted against log drug concentration.
# PC3 [3] = assay: Soft agar colony-formation assay, prostate cancer; assay type: cell-based; details: for anticancer activity in comparison with cisplatin, soft agar, prostate cancer cell line: FIG. 52, PC3; for IC50: Homo sapiens, PC-3, 168 h, Soft Agar Assay, 1 week, Alamar Blue
# Method: as §1, §2, §3
# PC3 [4] = assay: In vitro antiproliferative assay (MTT assay), prostate cancer cell line; assay type: cell-based; details: Homo sapiens, PC-3, 48 h, MTT assay, prostate cancer PC3, 48 hrs drug incubation
# Method: as §4, §5, §6
# PC3 [5] = assay: In vitro sphere-forming assay (cancer stem cells), Prostosphere media; details: for 3D sphere count of PC3: Prostosphere media, 2000 cells/well, n = 6 ± S.D
# Method: In Vitro Sphere-forming Assay: Sphere assay measures the ability of cancer stem cells (CSCs) to form spheres in specially designed serum-free medium.
# Prostosphere Media Preparation (For 100 mL):1 g methyl cellulose autoclaved with magnetic stirrer, 100 mL plain media (Prostate Epithelial Basal Medium) was added and dissolved, under magnetic stirring. After complete dissolution, Insulin-40 μL, B27-2 mL, EGF-80 μL, Penstrep-1 ml was added.
# Procedure—The cells were trypsinised and made into single-cell suspension by passing through cell strainers (100 μl and 40 μl, respectively), The cells were diluted at a concentration of 2000 cells/100 μL and suspended in either Mammosphere (for breast cell lines) or Prostosphere (for prostate cell lines). 100 μL of this suspension was added into each well of 96-well suspension plates and incubated at 37° C., 5% CO2 for 24 hrs. Appropriate concentrations of the drugs (2 μL) were added into respective wells with 100 μL of stem cell culture medium. Plates were incubated at 37° C., 50 CO2 for 72 hrs. After incubation, 2.5 μL of the respective drug concentration and 50 μL of stem cell culture medium were added into each well and the plates were further incubated at 37° C., 50% CO2 for 72 hrs. 3 μL of the respective drug concentration was added with 50 μL of stem cell culture medium again after incubation and plates were reincubated for 72 hrs at 37° C., 50 CO2. Number of primary spheres formed for each concentration were counted. The spheres were converted to 0 viability of spheres compared to untreated (Growth Control with DMSO, GCD).
# MDAMB231 [6] = assay: In vitro sphere-forming assay (cancer stem cells), Mammosphere media; details: for 3D sphere count of MDAMB231: Mammosphere media, 2000 cells/well, n = 6 ± S.D
# Human lymphocytes = assay: Lymphocyte assay (MTT on normal cells); assay type: cell-based; details: Lymphocyte; human peripheral blood lymphocytes, MTT procedure
# Method: Human lymphocytes were isolated from the peripheral blood. A pure population of lymphocytes was obtained based on differential centrifugation, in which diluted defibrinated blood was layered on a solution of sodium diatrizoate and polysucrose (HiSep LSM 1077) and centrifuged at low speeds for 30 mins.
# Procedure: The separation of lymphocytes from fresh defibrinated blood was performed by the procedure described below: • 1. Diluted defibrinated fresh blood was overlaid gradually on (HiSeP LSM1077) and centrifuged at low speed for 30 mins. • 2. The lymphocyte layer (the buffy coat) was carefully removed in a new collection tube. • 3. The buffy coat was given another wash, by the diluent buffer Dulbecco's phosphate buffered saline (D.P.B.S) • 4. The supernatant was discarded and the pellet was resuspended in D.P.B.S. • 5. The viability of cells was checked by Haemocytometer. • 6. Cells with purity and viability of more than 95% were taken for the experiment. • 7. Purified lymphocytes were diluted at a concentration of 0.7 million/ml with sterile D.P.B.S and MTT procedure was performed exactly as described earlier.
# [7] = Homo sapiens, PC-3, read-out: % Viability of spheres (PC3)
# [8] = Homo sapiens, MDA-MB-231, read-out: % Viability of spheres (MDAMB231)
Compound,IC50 (MDAMB231 [2]),IC50 (PC3 [4]),viability at 0.0025 µM (PC3 [5]; [7]),viability at 0.025 µM (PC3 [5]; [7]),viability at 0.25 µM (PC3 [5]; [7]),viability at 2.5 µM (PC3 [5]; [7]),viability at 25 µM (PC3 [5]; [7]),3D sphere count of PC3 (PC3 [5]; drug 0.025 uM),3D sphere count of PC3 (PC3 [5]; drug 0.25 uM),3D sphere count of PC3 (PC3 [5]; drug 2.5 uM),3D sphere count of PC3 (PC3 [5]; drug 25 uM),viability at 0.025 µM (MDAMB231 [6]; [8]),viability at 0.25 µM (MDAMB231 [6]; [8]),viability at 2.5 µM (MDAMB231 [6]; [8]),viability at 25 µM (MDAMB231 [6]; [8]),3D sphere count of MDAMB231 (MDAMB231 [6]; drug 0.025 uM),3D sphere count of MDAMB231 (MDAMB231 [6]; drug 0.25 uM),3D sphere count of MDAMB231 (MDAMB231 [6]; drug 2.5 uM),3D sphere count of MDAMB231 (MDAMB231 [6]; drug 25 uM),IC50 (Human lymphocytes),also measured
CCN(CC)CCNC(=O)COc1cccc2c1C(=O)C=C(Nc1ccc(OC)cc1)C2=O [Formula 72],1.01 µM,0.743 µM,81%,63%,46%,36%,16%,51(±3),37(±3),29(±2),13(±3),67%,48%,33%,19%,48(±3),34(±3),24(±2),14(±3),33 µM,"anticancer activity in comparison with cisplatin, soft agar, breast cancer cell line (MDAMB231 [1]): higher anticancer activity in comparison with cisplatin; IC50 (MDAMB231 [1]): 3.72 µM; anticancer activity in comparison with cisplatin, soft agar, prostate cancer cell line (PC3 [3]): higher anticancer activity in comparison with cisplatin; IC50 (PC3 [3]): 0.6 µM; 3D sphere count of PC3 (PC3 [5]; drug 0.0025 uM): 65(±3); viability at 0.0025 µM (MDAMB231 [6]; [8]): 84%; 3D sphere count of MDAMB231 (MDAMB231 [6]; drug 0.0025 uM): 60(±3)"
O=C1C=C(OCCCCCCN2CCOCC2)C(=O)c2ccccc21 [Formula 68],3.18 µM,4.73 µM,62%,55%,41%,31%,24%,48(±3),36(±3),27(±2),21(±2),53%,47%,39%,32%,47(±2),39(±3),33(±2),27(±2),5.58 µM,"anticancer activity in comparison with cisplatin, soft agar, breast cancer cell line (MDAMB231 [1]): higher anticancer activity in comparison with cisplatin; IC50 (MDAMB231 [1]): 2.37 µM; anticancer activity in comparison with cisplatin, soft agar, prostate cancer cell line (PC3 [3]): higher anticancer activity in comparison with cisplatin; IC50 (PC3 [3]): 2.53 µM; 3D sphere count of PC3 (PC3 [5]; drug 0.0025 uM): 54(±4); viability at 0.0025 µM (MDAMB231 [6]; [8]): 62%; 3D sphere count of MDAMB231 (MDAMB231 [6]; drug 0.0025 uM): 54(±2)"
O=C1C(c2ccc3c(c2)OCO3)=CC(=O)c2c(OCCCC(=O)N3CCOCC3)cccc21 [Formula 69],2.75 µM,2.12 µM,93%,65%,49%,35%,21%,53(±3),40(±2),29(±2),17(±3),70%,57%,35%,19%,58(±3),47(±3),29(±3),16(±2),12.1 µM,3D sphere count of PC3 (PC3 [5]; drug 0.0025 uM): 76(±3); viability at 0.0025 µM (MDAMB231 [6]; [8]): 86%; 3D sphere count of MDAMB231 (MDAMB231 [6]; drug 0.0025 uM): 71(±3)
"O=C1C(c2ccc3c(c2)OCO3)=CC(=O)c2c(OCCN3CCOCC3)cccc21 [Formula 1, 5-(2-morpholinoethoxy)-2-(benzo[d][1,3]dioxol-6-yl)naphthalene-1,4-dione]",0.656 µM,0.579 µM,–,80%,62%,45%,30%,65(±3),51(±3),37(±3),25(±3),83%,62%,44%,31%,64(±5),48(±4),34(±4),24(±4),1.49 µM,viability at 250 µM (PC3 [5]; [7]): 16%; 3D sphere count of PC3 (PC3 [5]; drug 250 uM): 13(±3); viability at 250 µM (MDAMB231 [6]; [8]): 13%; 3D sphere count of MDAMB231 (MDAMB231 [6]; drug 250 uM): 10(±2)
